The values that follow come from PMC4072787 (PLoS Pathogens, 2014).

The nature of data set [1]: in vitro. The following applies: African green monkey.
The subject of a further data set is VEEV V3526. Briefly: microbe, parasite or virus in culture. In kind it is cell-based. The following applies: Venezuelan equine encephalitis virus.
Data set [2] relates to VEEV TC-83. Put plainly: microbe, parasite or virus in culture. It is filed as cell-based. The following applies: Venezuelan equine encephalitis virus, Vero 76, read-out: IC50 against TC-83 1º.
The subject of data set [3] is VEEV TC-83. Put plainly: microbe, parasite or virus in culture. In kind it is cell-based. The following applies: Venezuelan equine encephalitis virus, Vero 76.
In data set [4] the test system is VEEV TC-83. Briefly: microbe, parasite or virus in culture. It is filed as cell-based. Conditions: Venezuelan equine encephalitis virus.
A short description of data set [5]: in vitro. Conditions: microsomes.
The subject of data set [6] is VEEV TC-83. It is filed as cell-based, Venezuelan equine encephalitis virus.
In the next data set the test system is VEEV TC-83 proteins. In kind it is cell-based, Venezuelan equine encephalitis virus.
The conditions of data set [7]: microsomes.
Data set [8] has as its system VEEV TrD. Briefly: microbe, parasite or virus in culture. It is filed as cell-based. The following applies: Venezuelan equine encephalitis virus.
Another data set is described as follows: in vivo. The following applies: mouse, ip.
Data set [9] in a line: in vitro. The following applies: mouse; for fraction unbound: plasma.
In a further data set the test system is VSV-EGFP. Briefly: microbe, parasite or virus in culture. In kind it is cell-based, vesicular stomatitis virus.
The next data set relates to VEEV TC-83 RNA. In kind it is cell-based, Venezuelan equine encephalitis virus.
The next data set concerns CHIKV. Briefly: microbe, parasite or virus in culture. In kind it is cell-based, Chikungunya virus.
In the next data set the test system is VACV-LREV. Put plainly: microbe, parasite or virus in culture. In kind it is cell-based, vaccinia virus (western reserve).
A further data set has as its system EEEV strain FL91. Put plainly: microbe, parasite or virus in culture. It is filed as cell-based, Eastern equine encephalitis virus.
Data set [10] has as its system VEEV TrD. It is filed as cell-based, Venezuelan equine encephalitis virus.
A further data set relates to RSV (strain Long). Briefly: microbe, parasite or virus in culture. It is filed as cell-based, human respiratory syncytial virus.
The test system of data set [11] is VEEV TC-83. It is filed as cell-based, Venezuelan equine encephalitis virus. This is another data set of the same source.
The nature of data set [12]: in vitro. The following applies: dog, MDCK-MDR1.
For another data set, the system named is MDR1. Put plainly: in vitro. The following applies: dog, MDCK-MDR1.
Data set [13] is described as follows: in vitro. The following applies: mouse, plasma.
Data set [14] deals with VEEV TC-83. It is filed as cell-based, Venezuelan equine encephalitis virus. This is another data set of the same source.
For another data set, the system named is WEEV (VR-70). Put plainly: microbe, parasite or virus in culture. Conditions: Western equine encephalitis virus, Vero, 72 h, read-out: Antiviral Activity (IC50), WEEV. In kind it is cell-based.
The conditions of data set [15]: 16 hr.
The test system of another data set is Ebola virus (Zaire)-GFP. Briefly: microbe, parasite or virus in culture. It is filed as cell-based.
For data set [16] the following is noted: mouse, in vivo.
Data set [17] is described as follows: in vitro. The following applies: PAMPA.
The test system of data set [18] is VEEV TC-83. The following applies: mouse, in vivo; cited from earlier work.
Setting [19] is: Vero 76, read-out: IC50 against TC-83 2º.

“Also recorded” adds a separate entry of the source. Where two headings read alike, the source gives them in different places. A value given as a limit tells only on which side of the number the result lay.

`O=C(Oc1ccc2ccccc2c1Br)N1CCCCCC1` [compound 2928803]: the CC50 in the data set “in vitro [1]” was > 25 µM. For the same compound, the IC50 in the data set on VEEV V3526 (read-out: IC50 against V3526) is > 50 µM; in the data set on VEEV TC-83 [2], 4.26 µM; in the data set with VEEV TC-83 [4] (setting [19]), > 50 µM. In the data set with VEEV TC-83 [3], this compound came in with an inhibition at 20 µM of 42.8%.
For `Clc1ccc2nnnc(-c3ccccc3)c2c1` [compound 902491], the CC50 in “in vitro [1]” was > 25 µM. The IC50 stood at 6.12 µM with VEEV V3526 (read-out: IC50 against V3526), 9.71 µM with VEEV TC-83 [2] and 3.45 µM in the data set on VEEV TC-83 [4] (setting [19]). In addition, the inhibition at 20 µM in the data set with VEEV TC-83 [3] is 42.1%.
On to `CCN1CCN(Cc2nc3ccc([N+](=O)[O-])cc3c(=O)n2-c2ccccc2F)CC1` [CID15997213], for which the CC50 in the data set “in vitro [1]” is > 25 µM. Also, the microsomal CLint in “in vitro [5]” was determined as 31.4 µL/min/mg. Further, the “Progeny virus in titer reduction assay” value in the data set on VEEV TC-83 [6] and in the data set on VEEV TrD [10] was “No progeny virus was detected” throughout. Further, the “Viral protein level (western blot)” value in the data set on VEEV TC-83 proteins is “dramatic decrease in viral protein level; also recorded: not able to detect viral proteins”. Further, the microsomal stability entry in [7] was “good”. The IC50 was 0.67 µM in the data set with VEEV V3526 (read-out: Antiviral Activity (IC50), VEEV V3526); 0.32 µM in the data set on VEEV V3526 (read-out: IC50, V3526); 1.01 µM with VEEV V3526 (read-out: IC50 against V3526); 0.48 µM in the data set with VEEV TrD [8] (N2a, read-out: Antiviral Activity (IC50), VEEV TrD); 0.38 µM in the data set on VEEV TrD [8] (Vero 76, read-out: Antiviral Activity (IC50), VEEV TrD); 0.36 to 0.48 µM with VEEV TrD [8] (read-out: IC50, VEEV TrD). The IC50 in the data set on VSV-EGFP (Vesicular stomatitis virus, A549, 18 h, read-out: Antiviral Activity (IC50), VSV-EGFP) was > 20 µM; in the data set on CHIKV (Chikungunya virus, 72 h, read-out: Antiviral Activity (IC50), CHIKV) it was > 50 µM; in the data set on VACV-LREV (Vaccinia virus Western Reserve, A549, 18 h, read-out: Antiviral Activity (IC50), VACV-LREV) it was > 20 µM; with EEEV strain FL91 (Eastern equine encephalitis virus, Vero, 40 h, read-out: Antiviral Activity (IC50), EEEV) it was > 20 µM; in the data set with RSV (strain Long) (human respiratory syncytial virus, HEp-2, 120 h, read-out: Antiviral Activity (IC50), RSV) it was > 50 µM; in the data set on VEEV TC-83 [2], 1.91 µM. The IC50 in the data set with WEEV (VR-70) is 10 µM; in the data set with VEEV TC-83 [4] (setting [19]), 1.3 µM; in the data set on VEEV TC-83 [4] (read-out: IC50, VEEV TC-83), 0.84 µM; with Ebola virus (Zaire)-GFP (Zaire ebolavirus, HeLa, 24 h, read-out: Antiviral Activity (IC50), Ebola virus (Zaire)-GFP), > 10 µM. Further, in the data set “in vivo”, the MTD is ≥ 800 mg/kg. Besides, in “in vitro [9]”, the recovery amounted to 89%. The values for the fraction unbound in “in vitro [9]” (Mean plasma fraction bound), in the data set “in vitro [9]” (Mean plasma fraction unbound) and in “in vitro [9]” (protein binding) were 0.324, 0.324 and 0.68, respectively. Besides, the solubility in “physchem” was > 100 µM. In addition, in the data set on VSV-EGFP, the “Antiviral Activity (IC50), VSV-EGFP” value is reported as “No antiviral activity”. Moreover, in the data set with VEEV TC-83 RNA, the “Reduction in viral RNA levels as compared to the control” value is > 8,000 fold. Also, the “Antiviral Activity (IC50), CHIKV” value with CHIKV is given as “not inhibited”. Further, in the data set on VACV-LREV, the “Antiviral Activity (IC50), VACV-LREV” value is reported as “No antiviral activity”. Besides, the “Antiviral Activity (IC50), EEEV” value in the data set with EEEV strain FL91 is reported as “no activity”. In addition, the “Antiviral Activity (IC50), RSV” value in the data set with RSV (strain Long) is on record as “No antiviral activity”. In the data set on VEEV TC-83 [11], the Plaque formation result was “no visible plaques”. Besides, the Papp A→B in “in vitro [12]” stood at 7.2 ×10⁻⁶ cm/s. For the same compound, the Papp B→A in the data set “in vitro [12]” worked out at 38.5 ×10⁻⁶ cm/s. For the same compound, the efflux ratio in the data set on MDR1 amounted to 5.3. In addition, the half-life in “in vitro [13]” was > 4 h. Also, the “Virus production still occurring, of the maximum” value in the data set with VEEV TC-83 [14] amounted to 90%. Further, in the data set on VEEV TC-83 [3], the inhibition at 20 µM came to 73%. The Aqueous solubility in [15] is recorded as >100 µM. In the data set on Ebola virus (Zaire)-GFP, the “Antiviral Activity (IC50), Ebola virus (Zaire)-GFP” value is reported as “No antiviral activity”. In addition, the “Acute toxicity, clinical signs” value in data set [16] is listed as “no acute toxicity”. Also, in data set [16], the “Toxicity (body weight loss, adverse effects)” value was “No apparent toxicity”. In the data set “in vitro [17]”, this compound had a Papp of 42 ×10⁻⁶ cm/s.
As for `CCOC(=O)c1ccc(Nc2nc(=O)c3cccnc3s2)cc1` [compound 1259240], the CC50 in “in vitro [1]” is > 25 µM. In addition, the IC50 was 10.8 µM in the data set with VEEV V3526 (read-out: IC50 against V3526), 6.32 µM with VEEV TC-83 [2] and 7.07 µM in the data set on VEEV TC-83 [4] (setting [19]). The inhibition at 20 µM in the data set with VEEV TC-83 [3] is 49%.
With (−)-carbodine, in the data set on VEEV TC-83 [18], the Survival is recorded as 50%.
For the compound `O=c1nc(Nc2ccc(OCc3ccccc3)cc2)sc2ncccc12` [compound 1258664], the CC50 in “in vitro [1]” was > 25 µM. Also, the IC50 was determined as 3.67 µM with VEEV V3526 (read-out: IC50 against V3526), 2.86 µM in the data set with VEEV TC-83 [2] and 2.38 µM in the data set on VEEV TC-83 [4] (setting [19]). In the data set on VEEV TC-83 [3], testing at 20 µM gave an inhibition of 63.2%.
In the same order, the values of `O=C(Cc1cccs1)Nc1nc2c(s1)CCCC2` [compound 847035] are > 25 µM, 7.09 µM, 6.38 µM, 4.71 µM and 27.8%.
